According to US20140323534A1, “USES OF 3'-DESFERRITHIOCIN ANALOGS” (University of Florida Research Foundation, Inc., priority 2011, published 2014):
Where two headings read alike, the source gives them in different places. Each block holds one compound with its values, some of them ahead of it.

Key:
[1] = test system: acetic acid-induced colitis in rats; test: Prevention of acetic acid-induced colitis in a rat model; type: in vivo, Sprague-Dawley rats; details: FIG. 1: 20 mg/kg IV 30 minutes before the 4% acetic acid
[2] = LogPapp of DFT analogs; type: physicochemical
[3] = Concentration of DFT analogs in rat plasma and cerebrospinal fluid after oral (PO) and subcutaneous (SC) doses; type: in vivo, Sprague-Dawley rats; details: rats, monosodium salt; for concentration at 1 h / concentration at 2 h / concentration at 4 h / concentration at 8 h / concentration at 0.5 h: male, Sprague-Dawley, rat; for concentration at 8 h / Concentration in plasma: 8 h
Protocol: The DFT analogs useful in the inventive methods were converted from the free acid form to the monosodium salt form. Water followed by one equivalent of sodium hydroxide was added to the DFT analog as a free acid. The resulting slurry was vortexed or sonicated until the DFT analog went into solution. More water was added, and the solution was vortexed or sonicated again. The formed yellow solution, having a pH about 7, was used as a sample solution in the following examples. It is preferred that a fresh sample solution of the DFT analog is made shortly before the solution is used in an assay.
Adult male Sprague-Dawley rats (450-500 g) were used. The rats were not fasted. A sample solution of a monosodium salt of (S)-3′-(HO)-DADFT-norPE (II-A) or (S)-3′-(HO)-DADFT-PE (III-A) was administered to the rats at an oral or subcutaneous dose of 300 μmol/kg. Concentrations of the DFT analogs in the plasma and cerebrospinal fluid of the rats were measured at 0.5 hour, 1 hour, 2 hours, 4 hours, and 8 hours post administration.

[4] = cerebrospinal fluid, 300 μmol/kg PO, read-out: Concentration in cerebrospinal fluid
[5] = plasma, 300 μmol/kg PO, read-out: Concentration in plasma
[6] = cerebrospinal fluid, 300 μmol/kg SC, read-out: Concentration in cerebrospinal fluid
[7] = plasma, 300 μmol/kg SC, read-out: Concentration in plasma

Structure (SMILES): CC(=O)N(O)CCCCCNC(=O)CCC(=O)N(O)CCCCCNC(=O)CCC(=O)N(O)CCCCCN [DFO, desferrioxamine]
- Effect on acetic acid-induced colitis [1]: prevent acetic acid-induced colitis

- LogPapp [2]: −1.22
- concentration at 1 h [3, 4]: 0 µM
- concentration at 2 h [3, 4]: 0 µM
- concentration at 4 h [3, 4]: 0 µM
- concentration at 8 h ([3]; cerebrospinal fluid, 300 μmol/kg PO): 0 nM
- concentration at 0.5 h ([3]; plasma, 300 μmol/kg PO, 0.5 h, read-out: Concentration in plasma): 62 ± 24 µM
- concentration at 1 h [3, 5]: 46 ± 3 µM
- concentration at 2 h [3, 5]: 24 ± 5 µM
- concentration at 4 h [3, 5]: 13 ± 2 µM
- Concentration in cerebrospinal fluid ([3]; 300 μmol/kg PO, 0.5 h): trace
- Concentration in plasma ([3]; 300 μmol/kg PO): trace
Structure (SMILES): COCCOCCOCCOc1cccc(C2=N[C@@](C)(C(=O)O)CS2)c1O [III-A]

- LogPapp [2]: −0.93
- concentration at 0.5 h ([3]; cerebrospinal fluid, 300 μmol/kg SC, 0.5 h, read-out: Concentration in cerebrospinal fluid): 0 µM
- concentration at 1 h [3, 6]: 0 µM
- concentration at 2 h [3, 6]: 0 µM
- concentration at 4 h [3, 6]: 0 µM
- concentration at 8 h ([3]; cerebrospinal fluid, 300 μmol/kg SC): 0 nM
- concentration at 0.5 h ([3]; plasma, 300 μmol/kg SC, 0.5 h, read-out: Concentration in plasma): 77 ± 10 µM
- concentration at 1 h [3, 7]: 66 ± 5 µM
- concentration at 2 h [3, 7]: 44 ± 2 µM
- concentration at 4 h [3, 7]: 7 ± 1 µM
- Concentration in plasma ([3]; 300 μmol/kg SC): trace
Structure (SMILES): COCCOCCOc1cccc(C2=N[C@@](C)(C(=O)O)CS2)c1O [II-A]
